For the assay, the system named is test plant species. The experiment in a line: Post-emergent herbicidal activity test (greenhouse, foliar spray, visual growth reduction). Format: in vivo. Conditions: post-emergence, 336 h, 140 g ai/ha. The method, boiled down: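 Seedlings were raised 7-21 d in a greenhouse under a 15 h photoperiod until the first or second true leaf. Each compound, dissolved in acetone:DMSO 97:3 and diluted into a surfactant-containing spray mixture, was then applied at 187 L/ha. Plants were subirrigated, and growth reduction was scored visually at 14 d.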

The mark [1] stands for this setting: ECHCG: barnyardgrass (Echinochloa crus-galli), 14 days after application, read-out: Visual Growth Reduction (%) 14 Days After Application, ECHCG.
[2] abbreviates: IPOHE: ivy-leaf morning glory (Ipomoea hederacea), 14 days after application, read-out: Visual Growth Reduction (%) 14 Days After Application, IPOHE.
Where [3] appears, read: KCHSC: kochia (Bassia scoparia), 14 days after application, read-out: Visual Growth Reduction (%) 14 Days After Application, KCHSC.
The mark [4] stands for this setting: ORYSA: rice (Oryza sativa), 14 days after application, read-out: Visual Growth Reduction (%) 14 Days After Application, ORYSA.
Where [5] appears, read: SETFA: giant foxtail (Setaria faberi), 14 days after application, read-out: Visual Growth Reduction (%) 14 Days After Application, SETFA.
Where [6] appears, read: SORVU: grain sorghum (Sorghum vulgare), 14 days after application, read-out: Visual Growth Reduction (%) 14 Days After Application, SORVU.
Setting [7] is: STEME: common chickweed (Stellaria media), 14 days after application, read-out: Visual Growth Reduction (%) 14 Days After Application, STEME.
The mark [8] stands for this setting: TRZAS: wheat, spring (Triticum aestivum), 14 days after application, read-out: Visual Growth Reduction (%) 14 Days After Application, TRZAS.
The mark [9] stands for this setting: blackgrass (Alopecurus myosuroides), 14 Days After Application, read-out: Visual Growth Reduction (%) ALOMY.
Setting [10] is: canada thistle (Cirsium arvense), 14 Days After Application, read-out: Visual Growth Reduction (%) CIRAR.
[11] abbreviates: crabgrass (Digitaria sanguinalis), 14 Days After Application, read-out: Visual Growth Reduction (%) DIGSA.
The mark [12] stands for this setting: lambsquarters (Chenopodium album), 14 Days After Application, read-out: Visual Growth Reduction (%) CHEAL.
Setting [13] is: redroot pigweed (Amaranthus retroflexus), 14 Days After Application, read-out: Visual Growth Reduction (%) AMARE.
[14] abbreviates: wild oat (Avena fatua), 14 Days After Application, read-out: Visual Growth Reduction (%) AVEFA.
Where [15] appears, read: yellow nutsedge (Cyperus esculentus), 14 Days After Application, read-out: Visual Growth Reduction (%) CYPES.

Where two headings read alike, the source gives them in different places.

`C#Cc1cc(C(F)(F)F)cc(Cl)c1-c1ccc(Cl)c(C(=O)OC)n1` [F239, methyl 3-chloro-6-(2-chloro-6-ethynyl-4-(trifluoromethyl)phenyl)picolinate]: the pest or weed control at 140 g/ha under setting [1] lay in the range of 0 to 29%; the pest or weed control at 140 g/ha under setting [2] lay in the range of 75 to 84%; the pest or weed control at 140 g/ha under setting [3] fell in the range of 0 to 29%; the pest or weed control at 140 g/ha under setting [4] is 0 to 29%; the pest or weed control at 140 g/ha under setting [5] lay in the range of 0 to 29%; the pest or weed control at 140 g/ha under setting [6] lay in the range of 60 to 74%. Moreover, the pest or weed control at 140 g/ha lay in the range of 0 to 29% under setting [7]; 0 to 29% under setting [8]; 0 to 29% under setting [9]; 0 to 29% under setting [10]; 0 to 29% under setting [11]; 30 to 44% under setting [12]. In addition, the pest or weed control at 140 g/ha runs as follows: under setting [13], 0 to 29%; under setting [14], 0 to 29%; under setting [15], 0 to 29%.

As for `COC(=O)c1nc(-c2cc(F)c3c(c2)OC(F)(F)O3)c(F)cc1Cl` [F240, Methyl 3-chloro-5-fluoro-6-(2,2,7-trifluorobenzo[d][1,3]dioxol-5-yl)picolinate], the pest or weed control at 140 g/ha by setting is: under setting [1], 0 to 29%; under setting [2], 95 to 100%; under setting [3], 0 to 29%; under setting [4], 0 to 29%; under setting [5], 0 to 29%; under setting [6], 75 to 84%. Besides, the pest or weed control at 140 g/ha under setting [7] lay within 0 to 29%; the pest or weed control at 140 g/ha under setting [8] is 0 to 29%; the pest or weed control at 140 g/ha under setting [9] lay in the range of 0 to 29%; the pest or weed control at 140 g/ha under setting [10] lay within 0 to 29%; the pest or weed control at 140 g/ha under setting [11] is 95 to 100%; the pest or weed control at 140 g/ha under setting [12] fell in the range of 60 to 74%. Further, the pest or weed control at 140 g/ha lay in the range of 30 to 44% under setting [13], 0 to 29% under setting [14] and 0 to 29% under setting [15].

Turning to `COC(=O)c1nc(-c2cc(F)c(C(F)(F)F)cc2Cl)c(F)cc1Cl` [F241, Methyl 3-chloro-6-(2-chloro-5-fluoro-4-(trifluoromethyl)phenyl)-5-fluoropicolinate], the pest or weed control at 140 g/ha under setting [1] was 60 to 74%; the pest or weed control at 140 g/ha under setting [2] is 95 to 100%; the pest or weed control at 140 g/ha under setting [3] lay in the range of 95 to 100%; the pest or weed control at 140 g/ha under setting [4] lay in the range of 0 to 29%; the pest or weed control at 140 g/ha under setting [5] lay within 95 to 100%; the pest or weed control at 140 g/ha under setting [6] is 95 to 100%. Further, the pest or weed control at 140 g/ha is, setting by setting: under setting [7], 0 to 29%; under setting [8], 75 to 84%; under setting [9], 60 to 74%; under setting [10], 95 to 100%; under setting [11], 95 to 100%; under setting [12], 95 to 100%. Further, the pest or weed control at 140 g/ha by setting is: under setting [13], 95 to 100%; under setting [14], 85 to 94%; under setting [15], 60 to 74%.

`COC(=O)c1nc(-c2cccc3c2OC(F)(F)O3)ccc1Cl` [F242, Methyl 3-chloro-6-(2,2-difluorobenzo[d][1,3]dioxol-4-yl)picolinate]: the pest or weed control at 140 g/ha under setting [1] was 0 to 29%; the pest or weed control at 140 g/ha under setting [2] is 0 to 29%; the pest or weed control at 140 g/ha under setting [3] is 0 to 29%; the pest or weed control at 140 g/ha under setting [4] was 0 to 29%; the pest or weed control at 140 g/ha under setting [5] was 0 to 29%; the pest or weed control at 140 g/ha under setting [6] lay within 75 to 84%. Further, the pest or weed control at 140 g/ha fell in the range of 0 to 29% under setting [7]; 0 to 29% under setting [8]; 0 to 29% under setting [9]; 0 to 29% under setting [10]; 0 to 29% under setting [11]; 60 to 74% under setting [12]. The pest or weed control at 140 g/ha by setting is: under setting [13], 0 to 29%; under setting [14], 0 to 29%; under setting [15], 0 to 29%.

As to `COC(=O)c1nc(-c2cc(F)c(C(F)(F)F)cc2Cl)ccc1Cl` [F243, Methyl 3-chloro-6-(2-chloro-5-fluoro-4-(trifluoromethyl)phenyl)picolinate], the pest or weed control at 140 g/ha lay within 95 to 100% under setting [1]; 95 to 100% under setting [2]; 75 to 84% under setting [3]; 0 to 29% under setting [4]; 95 to 100% under setting [5]; 95 to 100% under setting [6]. Further, the pest or weed control at 140 g/ha reads like this: under setting [7], 0 to 29%; under setting [8], 85 to 94%; under setting [9], 85 to 94%; under setting [10], 95 to 100%; under setting [11], 95 to 100%; under setting [12], 95 to 100%. Further, the pest or weed control at 140 g/ha lay in the range of 95 to 100% under setting [13], 75 to 84% under setting [14] and 85 to 94% under setting [15].

For `COC(=O)c1cc2c(c(-c3nc(C(=O)OC)c(Cl)cc3F)c1)OC(F)(F)O2` [F244, Methyl 3-chloro-6-(2,2-difluoro-6-(methoxycarbonyl)benzo[d][1,3]dioxol-4-yl)-5-fluoropicolinate], the pest or weed control at 140 g/ha by setting is: under setting [1], 0 to 29%; under setting [2], 0 to 29%; under setting [3], 0 to 29%; under setting [4], 0 to 29%; under setting [5], 0 to 29%; under setting [6], 0 to 29%. The pest or weed control at 140 g/ha lay in the range of 0 to 29% under setting [7]; 0 to 29% under setting [8]; 0 to 29% under setting [9]; 0 to 29% under setting [10]; 0 to 29% under setting [11]; 60 to 74% under setting [12]. The pest or weed control at 140 g/ha under setting [13] lay in the range of 0 to 29%, the pest or weed control at 140 g/ha under setting [14] is 0 to 29% and the pest or weed control at 140 g/ha under setting [15] was 0 to 29%.

Turning to `COC(=O)c1cc2c(c(-c3ccc(Cl)c(C(=O)OC)n3)c1)OC(F)(F)O2` [F245, Methyl 3-chloro-6-(2,2-difluoro-6-(methoxycarbonyl)benzo[d][1,3]dioxol-4-yl)picolinate], the pest or weed control at 140 g/ha by setting is: under setting [1], 0 to 29%; under setting [2], 85 to 94%; under setting [3], 0 to 29%; under setting [4], 0 to 29%; under setting [5], 0 to 29%; under setting [6], 75 to 84%. Also, the pest or weed control at 140 g/ha lay in the range of 0 to 29% under setting [7]; 0 to 29% under setting [8]; 0 to 29% under setting [9]; 0 to 29% under setting [10]; 0 to 29% under setting [11]; 85 to 94% under setting [12]. The pest or weed control at 140 g/ha by setting is: under setting [13], 0 to 29%; under setting [14], 0 to 29%; under setting [15], 45 to 59%.

In the case of `COC(=O)c1nc(-c2cc(F)c(C(F)(F)F)cc2Cl)c(Cl)cc1Cl` [F246, Methyl 3,5-dichloro-6-(2-chloro-5-fluoro-4-(trifluoromethyl)phenyl)picolinate], the pest or weed control at 140 g/ha runs as follows: under setting [1], 0 to 29%; under setting [2], 95 to 100%; under setting [3], 75 to 84%; under setting [4], 0 to 29%; under setting [5], 75 to 84%; under setting [6], 95 to 100%. In addition, the pest or weed control at 140 g/ha fell in the range of 0 to 29% under setting [7]; 0 to 29% under setting [8]; 45 to 59% under setting [9]; 75 to 84% under setting [10]; 85 to 94% under setting [11]; 95 to 100% under setting [12]. Also, the pest or weed control at 140 g/ha by setting is: under setting [13], 95 to 100%; under setting [14], 0 to 29%; under setting [15], 60 to 74%.

Values taken from patent publication US20230017045A1, “PYRIDINE AND PYRIMIDINE CARBOXYLATE HERBICIDES AND METHODS OF USE THEREOF” (Dow AgroSciences LLC, priority 2017, published 2023).
